Read-outs that look alike come from different tables or passages of the source.
Legend:
[1] = test system: D-Serine Levels in the cerebellum; assay: In vivo elevation of D-serine levels in the cerebellum (LC/MS/MS); conditions: Mus musculus, ip, mice, read-out: Fold increase in D-serine in the cerebellum over vehicle; for response vs control in vivo at 10 mg/kg: 10 mg/kg i.p.; for response vs control in vivo at 50 mg/kg: 50 mg/kg i.p.
Method: In another example, the compounds activity is determined by measuring D-serine levels in vivo. Elevation of the D-serine level in a certain brain area (e.g., the cerebellum) of a test animal (e.g., mouse, rat, pig and the like) is indicative of DAAO inhibition in vivo. An exemplary assay format, which measures D-serine levels (LC/MS/MS) in the cerebellum of mice two hours and six hours after intraperitoneal (i.p.) dosing, is described herein (e.g., Example 9). Increases in D-serine levels were determined through comparison with vehicle. Useful variations of this assay will be apparent to those of skill in the art. Compounds of the invention are judged to be sufficiently active in this assay when at least one, preferably at least two, more preferably at least three and most preferably all four of the following criteria are met:
Mice (C57BL/6, 8-9 weeks of age) were dosed intraperitoneally at 10 mL/kg with 50 mg/kg or 10 mg/kg of compound suspended in 45% (w/v) hydroxy-β-cyclodextrin vehicle. Animals were sacrificed at either 2 or 6 hours post compound administration with an N=3 per time point. At sacrifice, trunk blood was collected into tubes containing potassium EDTA, which were then centrifuged to permit isolation of plasma. The cerebellum from each animal was dissected. Plasma and cerebellum samples were stored at −80° C. until samples were analyzed (LC/MS/MS).

Human DAAO = Human DAAO (Homo sapiens, UniProt P14920); assay: D-Amino Acid Oxidase Enzyme Assay (D-serine substrate, horseradish peroxidase/Amplex Red coupled fluorescence); format: biochemical
Chain of Human DAAO (P14920 whole entry): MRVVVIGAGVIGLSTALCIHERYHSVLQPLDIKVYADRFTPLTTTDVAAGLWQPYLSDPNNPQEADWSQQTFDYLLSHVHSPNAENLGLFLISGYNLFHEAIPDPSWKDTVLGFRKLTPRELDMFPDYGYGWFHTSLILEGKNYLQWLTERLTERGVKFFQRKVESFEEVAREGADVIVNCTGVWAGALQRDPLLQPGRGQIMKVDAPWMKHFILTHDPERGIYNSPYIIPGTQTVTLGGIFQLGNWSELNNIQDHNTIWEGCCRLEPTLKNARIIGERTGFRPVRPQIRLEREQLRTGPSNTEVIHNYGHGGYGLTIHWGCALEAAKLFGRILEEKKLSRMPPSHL
Method: This coupled reaction uses the enzyme substrate Amplex Red (Molecular Probes), which is converted to the fluorescent reaction product, resorufin (excitation 530-560 nm; emission ˜590 nm). All reagents were prepared in 50 mM sodium phosphate buffer at pH 7.4 and inhibition curves were generated at this pH.
The final concentrations of components in 200 μl total volume per well (black clear-bottom 96-well plate, Costar) were:
(a) Horseradish peroxidase: 4 Units per ml
(d) Amplex Red reagent: 50 uM
The reactions were initiated by addition of DAAO enzyme while the fluorescence was monitored. […] Inhibition curves were generated in the presence of varying concentrations of the inhibitor and IC50 values were calculated for each inhibitor.

[2] = D-serine 5 mM, pH 7.4, read-out: Human DAAO Inhibition (IC50)

Row | SMILES | response vs control in vivo at 10 mg/kg ([1]; 2 h) | response vs control in vivo at 10 mg/kg ([1]; 6 h) | response vs control in vivo at 50 mg/kg ([1]; 2 h) | response vs control in vivo at 50 mg/kg ([1]; 6 h) | IC50 (Human DAAO; [2]) | inhibition at 100 µM (Human DAAO) | IC50 (Human DAAO)
1 | O=C(O)c1cc2cc(F)sc2[nH]1 [Compound 66, 2-fluoro-6H-thieno[2,3-b]pyrrole-5-carboxylic acid] | 150 to 200% | < 150% | > 200% | 150 to 200% | < 25 nM | – | –
2 | O=C(O)c1cc2occ(F)c2[nH]1 [Compound 74, 3-fluoro-4H-furo[3,2-b]pyrrole-5-carboxylic acid] | > 200% | 150 to 200% | > 200% | > 200% | < 25 nM | – | –
3 | O=C(O)c1cc2sc(F)cc2[nH]1 [Compound 55, 2-fluoro-4H-thieno[3,2-b]pyrrole-5-carboxylic acid] | < 150% | < 150% | > 200% | 150 to 200% | < 25 nM | – | –
4 | O=C(O)c1[nH]c2ccoc2c1Br [Compound 72, 6-bromo-4H-furo[3,2-b]pyrrole-5-carboxylic acid] | < 150% | < 150% | < 150% | < 150% | < 1000 nM | – | –
5 | O=C(O)c1[nH]c2ccoc2c1F [Compound 75, 6-fluoro-4H-furo[3,2-b]pyrrole-5-carboxylic acid] | > 200% | 150 to 200% | > 200% | > 200% | < 25 nM | – | –
6 | O=C(O)c1cc2c(Br)csc2[nH]1 [Compound 8, 3-bromo-6H-thieno[2,3-b]pyrrole-5-carboxylic acid] | < 150% | < 150% | 150 to 200% | 150 to 200% | < 1000 nM | – | –
7 | O=C(O)c1cc2oc(F)cc2[nH]1 [Compound 78, 2-fluoro-4H-furo[3,2-b]pyrrole-5-carboxylic acid] | – | – | – | – | < 25 nM | – | –
8 | O=C(O)c1cc2scc(F)c2[nH]1 [Compound 56, 3-fluoro-4H-thieno[3,2-b]pyrrole-5-carboxylic acid] | 150 to 200% | < 150% | – | – | < 25 nM | – | –
9 | O=C(O)c1cc2cc(Cl)sc2[nH]1 [Compound 80, 2-chloro-6H-thieno[2,3-b]pyrrole-5-carboxylic acid] | – | – | – | – | < 100000 nM | – | –
10 | O=C(O)c1cc2scc(Cl)c2[nH]1 [Compound 67, 3-chloro-4H-thieno[3,2-b]pyrrole-5-carboxylic acid] | < 150% | < 150% | < 150% | < 150% | < 25 nM | – | –
11 | O=C(O)c1[nH]c2ccsc2c1F [Compound 54, 6-fluoro-4H-thieno[3,2-b]pyrrole-5-carboxylic acid] | > 200% | > 200% | – | – | < 25 nM | – | –
12 | O=C(O)c1cc2sc(Br)c(Br)c2[nH]1 [Compound 6, 2,3-dibromo-4H-thieno[3,2-b]pyrrole-5-carboxylic acid] | – | – | – | – | < 100000 nM | – | –
13 | O=C(O)c1[nH]c2sccc2c1Cl [Compound 69, 4-chloro-6H-thieno[2,3-b]pyrrole-5-carboxylic acid] | – | – | – | – | < 100 nM | – | –
14 | O=C(O)c1cc2scc(Br)c2[nH]1 [Compound 49, 3-bromo-4H-thieno[3,2-b]pyrrole-5-carboxylic acid] | – | – | < 150% | < 150% | < 100 nM | – | –
15 | O=C(O)c1[nH]c2sc(Br)cc2c1Br [Compound 84, 2,4-dibromo-6H-thieno[2,3-b]pyrrole-5-carboxylic acid] | – | – | – | – | – | 33% | –
16 | O=C(O)c1[nH]c2ccsc2c1Cl [Compound 70, 6-chloro-4H-thieno[3,2-b]pyrrole-5-carboxylic acid] | < 150% | < 150% | – | – | < 100 nM | – | –
17 | O=C(O)c1[nH]c2ccsc2c1Br [Compound 71, 6-bromo-4H-thieno[3,2-b]pyrrole-5-carboxylic acid] | < 150% | < 150% | – | – | < 1000 nM | – | –
18 | O=C(O)c1cc2oc(Cl)cc2[nH]1 [Compound 23, 2-chloro-4H-furo[3,2-b]pyrrole-5-carboxylic acid] | – | – | – | – | < 100000 nM | – | –
19 | O=C(O)c1cc2oc(Br)cc2[nH]1 [Compound 73, 2-bromo-4H-furo[3,2-b]pyrrole-5-carboxylic acid] | – | – | – | – | < 100000 nM | – | –
20 | O=C(O)c1cc2sc(Cl)cc2[nH]1 [Compound 4, 2-chloro-4H-thieno[3,2-b]pyrrole-5-carboxylic acid] | – | – | < 150% | < 150% | < 100000 nM | – | –
21 | O=C(O)c1cc2sc(Br)cc2[nH]1 [Compound 5, 2-bromo-4H-thieno[3,2-b]pyrrole-5-carboxylic acid] | < 150% | < 150% | 150 to 200% | < 150% | < 1000 nM | – | –
22 | O=C(O)c1cc2occ(Br)c2[nH]1 [Compound 30, 3-bromo-4H-furo[3,2-b]pyrrole-5-carboxylic acid] | < 150% | < 150% | 150 to 200% | < 150% | < 100 nM | – | –
23 | O=C(O)c1cc2c(Cl)csc2[nH]1 [Compound 81, 3-chloro-6H-thieno[2,3-b]pyrrole-5-carboxylic acid] | – | – | – | – | < 100 nM | – | –
24 | O=C(O)c1cc2c(F)csc2[nH]1 [Compound 68, 3-fluoro-6H-thieno[2,3-b]pyrrole-5-carboxylic acid] | < 150% | < 150% | 150 to 200% | 150 to 200% | < 25 nM | – | –
25 | O=C(O)c1[nH]c2sccc2c1F [Compound 82, 4-fluoro-6H-thieno[2,3-b]pyrrole-5-carboxylic acid] | – | – | – | – | < 100 nM | – | –
26 | O=C(O)c1[nH]c2sccc2c1Br [Compound 64, 4-bromo-6H-thieno[2,3-b]pyrrole-5-carboxylic acid] | < 150% | < 150% | < 150% | < 150% | < 1000 nM | – | –
27 | O=C(O)c1[nH]c2ccoc2c1Cl [Compound 79, 6-chloro-4H-furo[3,2-b]pyrrole-5-carboxylic acid] | – | – | – | – | < 100 nM | – | –
28 | O=C(O)c1cc2occ(Cl)c2[nH]1 [Compound 76, 3-chloro-4H-furo[3,2-b]pyrrole-5-carboxylic acid] | < 150% | < 150% | – | – | – | – | < 100 nM
29 | O=C(O)c1cc2cc(Br)sc2[nH]1 [Compound 65, 2-bromo-6H-thieno[2,3-b]pyrrole-5-carboxylic acid] | – | – | – | – | < 100000 nM | – | –

Reference: patent publication US7884124B2, “Fluoro-substituted inhibitors of D-amino acid oxidase” (Sepracor Inc., priority 2006, dated 2011)
